Test system: H9 hESCs
Experiment: Flow cytometry of neural markers in H9 hESCs differentiated in neural differentiation media
Assay type: cell-based, human
Conditions: day 9, E6 medium containing 1 μM RA
Description: hPSCs were washed once with phosphate-buffered saline (PBS; Invitrogen), incubated with Accutase® (Invitrogen) for 3 min, and collected by centrifugation. hPSCs were then plated onto Matrigel® or VTN-NC at a density of 2×10^5 cells/cm^2 in E8 medium containing 10 μM ROCK inhibitor and cultured overnight. The following morning, cells were changed to E6 medium, E6 containing 10 μM SB431542 (Cellagentech), or E6 containing 10 μM SB431542 and 200 ng/mL recombinant human noggin (R&D Systems) to initiate differentiation. E6 medium is the same formulation as E8 medium but without FGF2 and TGFβ1. Medium was changed every day until cells were utilized for analysis. […]
Cells were harvested from 6- or 12-well plates by washing once with PBS and incubating with Accutase® for 3-5 min. […] After washing twice with PBS containing 0.75% BSA, cells were analyzed on a FACSCanto™ (BD Biosciences) and resultant data were analyzed using Cyflogic software. Positive events were determined by gating the top 1% of the IgG control histograms, and all flow data presented are from biological replicates.
H9 hESCs were seeded at 2×10^5 cells/cm^2 on Matrigel® in E8 medium plus ROCK inhibitor as described above. […] Also, the morphological characteristics of the cells at day 6 were assessed by bright field microscopy. […]

Q: With CC1=C(/C=C/C(C)=C/C=C/C(C)=C/C(=O)O)C(C)(C)CCC1 [retinoic acid] as the compound, how does the “SOX1 expression by flow cytometry” value read?
A: The value was “up to 62±16%”.

— patent US20230151326A1, “Simplified Compositions and Methods for Generating Neural Stem Cells from Human Pluripotent Stem Cells” (Wisconsin Alumni Research Foundation, priority 2012, published 2023)
